# Assay results as given in ChEMBL document CHEMBL4627380, “Phaeosphaones: Tyrosinase Inhibitory Thiodiketopiperazines from an Endophytic Phaeosphaeria fuckelii” (J Nat Prod, 2020).
# Calls of active or inactive are those of the source. The calls are words filed in the database; no cut-off is given here.
# Legend:
# Mushroom tyrosinase = Mushroom tyrosinase (Agaricus bisporus, UniProt O42713+Q00024+C7FF04+C7FF05); assay: Inhibition of mushroom tyrosinase using L-Dopa as substrate preincubated for 10 mins followed by substrate addition and measured after 5 mins
# Homo sapiens = species on record: Homo sapiens; assay: Inhibition of alpha-glucosidase (unknown origin) at 100 uM
IC50 (Mushroom tyrosinase) [µM],inhibition (Homo sapiens),SMILES
–,inactive,CS[C@H](c1c[nH]c2ccccc12)[C@]1(O)NC(=O)[C@@](SC)(C(C)C)N(C)C1=O
33.2,inactive,CO[C@@]1([C@H](SC)c2c[nH]c3ccccc23)NC(=O)[C@@](SC)(C(C)C)N(C)C1=O
–,inactive,CO[C@]1([C@H](SC)c2c[nH]c3ccccc23)NC(=O)[C@@](SC)(C(C)C)N(C)C1=O
–,inactive,CS[C@]1(Cc2c[nH]c3ccccc23)NC(=O)[C@@](SC)(C(C)C)NC1=O
–,inactive,CC(C)[C@]12SS[C@]([C@@H](O)c3c[nH]c4ccccc34)(CC1=O)C(=O)N2C

# Continued, molecule first:
SMILES,IC50 (Mushroom tyrosinase) [µM],inhibition (Homo sapiens)
CC(C)[C@@]12SS[C@]3(C(=O)N1C)[C@@H](O)[C@]1(c4c[nH]c5ccccc45)c4ccccc4N[C@@H]1N3C2=O,28.4,inactive
CS[C@]1(Cc2c[nH]c3ccccc23)NC(=O)[C@](CO)(SC)N(C)C1=O [CHETOSEMINUDIN B],31.7,inactive
CC(C)[C@@H]1NC(=O)[C@@H]2C[C@@]3(O)c4ccccc4N[C@H]3N2C1=O,–,inactive
